Consider 11 compounds from patent publication US20190352276A1, “INHIBITORS OF BRUTON'S TYROSINE KINASE” (Joint Stock Company "Biocad", priority 2016, published 2019).

The nature of the series: Chemical stability in artificial gastric fluid (SGF without enzymes). Also: time not given here. The settings on record: 10 μM in SGF without enzymes, pH=1.4, 37° C.
Consider `C=CC(=O)N1CCC[C@@H](n2nc(-c3ccc(-n4ccc(=O)cc4)c(F)c3)c3cncc(Cl)c32)C1` [BCD-BTK -205, (R)-1-(4-(1-(1-acryloylpiperidin-3-yl)-7-chloro-1H-pyrazolo[4,3-c]pyridin-3-yl)-2-fluorophenyl)pyridin-4(1H)-one], for which the “Amount of substance in the sample in % (chemical stability)” value (“Amount of substance in the sample in %” below) was 100%.

Take `C=CC(=O)N1CCC[C@@H](n2nc(-c3ccc(-n4ccc(=O)cc4)cc3F)c3cncc(Cl)c32)C1` [BCD-BTK -204, (R)-1-(4-(1-(1-acryloylpiperidin-3-yl)-7-chloro-1H-pyrazolo[4,3-c]pyridin-3-yl)-3-fluorophenyl)pyridin-4(1H)-one]: the “Amount of substance in the sample in %” value was 100%.

Turning to `C=CC(=O)N1CCC[C@@H](n2nc(-c3cnc(C(=O)Nc4cc(C(F)(F)CC)ccn4)nc3)c3cncc(Cl)c32)C1` [BCD-BTK - 293, (R)-5-(1-(1-acryloylpiperidin-3-yl)-7-chloro-1H-pyrazolo[4,3-c]pyridin-3-yl)-N-(4-(1,1-difluoropropyl)pyridin-2-yl)pyrimidine-2-carboxamide], the “Amount of substance in the sample in %” value is 98.4%.

On to `C=CC(=O)N1CCC[C@@H](n2nc(-c3ccc(C(=O)Nc4ccc(F)cn4)cc3)c3cncc(C#N)c32)C1` [BCD-BTK-227, (R)-4-(1-(1-acryloylpiperidin-3-yl)-7-cyano-1H-pyrazolo[4,3-c]pyridin-3-yl)-N-(5-fluoropyridin-2-yl)benzamide], for which the “Amount of substance in the sample in %” value stood at 100%.

As to `C=CC(=O)N1CCC[C@@H](n2nc(-c3ccc(Oc4ccncc4)cc3)c3cncc(C#N)c32)C1` [BCD-BTK - 123, (R)-1-(1-acryloylpiperidin-3-yl)-3-(4(pyridin-4-yloxy)phenyl)-1H-pyrazolo[4,3-c]pyridin-7-carbonitrile], the “Amount of substance in the sample in %” value was determined as 97%.

For the compound `C=CC(=O)N1CCC[C@@H](n2nc(-c3cnc(-n4ccc(=O)c(C(N)=O)c4)nc3)c3cncc(Cl)c32)C1` [BCD-BTK -207, (R)-1-(5-(1-(1-acryloylpiperidin-3-yl)-7-chloro-1H-pyrazolo[4,3-c]pyridin-3-yl)pyrimidin-2-yl)-4-oxo-1,4-dihydropyridine-3-carboxamide], the “Amount of substance in the sample in %” value came out at 100%.

Regarding `C=CC(=O)N1CCC[C@@H](n2nc(-c3ccc(Oc4ccncc4)cc3)c3c(N)ncc(C#N)c32)C1` [BCD-BTK - 134, (R)-1-(1-acryloylpiperidin-3-yl)-4-amino-3-(4-(pyridin-4-yloxy)phenyl)-1H-pyrazolo[4,3-c]pyridin-7-carbonitrile], the “Amount of substance in the sample in %” value was 100%.

As for `C=CC(=O)N1CCC[C@@H](n2nc(-c3cnc(C(=O)Nc4cc(C(F)(F)CCC)ccn4)nc3)c3cncc(Cl)c32)C1` [BCD-BTK - 292, (R)-5-(1-(1-acryloylpiperidin-3-yl)-7-chloro-1H-pyrazolo[4,3-c]pyridin-3-yl)-N-(4-(1,1-difluorobutyl)pyridin-2-yl)pyrimidine-2-carboxamide], the “Amount of substance in the sample in %” value was 100%.

Regarding `CC#CC(=O)N1CC[C@H](Cn2nc(-c3ccc(C(=O)Nc4ccccn4)cc3)c3cncc(Cl)c32)C1` [BCD-BTK - 287, (S)-4-(1-((1-(but-2-ynoyl)pyrrolidin-3-yl)methyl)-7-chloro-1H-pyrazolo[4,3-c]pyridin-3-yl)-N-(pyridin-2-yl)benzamide], the “Amount of substance in the sample in %” value amounted to 100%.

In the case of `C=CC(=O)N1CCC[C@@H](n2nc(-c3ccc(C(=O)Nc4cc(C(F)(F)CCC)ccn4)cc3)c3cncc(Cl)c32)C1` [BCD-BTK - 252, (R)-4-(1-(1-acryloylpiperidin-3-yl)-7-chloro-1H-pyrazolo[4,3-c]pyridin-3-yl)-N-(4-(1,1-difluorobutyl)pyridin-2-yl)benzamide], the “Amount of substance in the sample in %” value is listed as 94.4%.

Take `C=CC(=O)N1CCC[C@@H](n2nc(-c3ccc(Oc4ccncc4)cc3)c3cncc(F)c32)C1` [BCD-BTK -211, (R)-1-(3-(7-fluoro-3-(4-(pyridin-4-yloxy)phenyl)-1H-pyrazolo[4,3-c]pyridin-1-yl)piperidin-1-yl)prop-2-en-1-one]: the “Amount of substance in the sample in %” value turned out to be 100%.
